# Laboratory results published in US20110294729A1, “Novel Insulin Analogues” (Novo Nordisk A/S, priority 2008, published 2011).
# Experiments:
# [1] = according to WO 90/01038; cited from earlier work
# human IR-B = molecular target: T1, human IR-B (Homo sapiens, UniProt P06213); assay: Insulin receptor binding assay (SPA, solubilised receptor), hIR-B
# T1 construct: solubilized human IR (holoreceptor) semipurified by wheat germ agglutinin purification; made in house; host or cells: baby hamster kidney (BHK) cells, stably transfected (pZem vector)
# T1 sequence (P06213 28-758 limits assumed): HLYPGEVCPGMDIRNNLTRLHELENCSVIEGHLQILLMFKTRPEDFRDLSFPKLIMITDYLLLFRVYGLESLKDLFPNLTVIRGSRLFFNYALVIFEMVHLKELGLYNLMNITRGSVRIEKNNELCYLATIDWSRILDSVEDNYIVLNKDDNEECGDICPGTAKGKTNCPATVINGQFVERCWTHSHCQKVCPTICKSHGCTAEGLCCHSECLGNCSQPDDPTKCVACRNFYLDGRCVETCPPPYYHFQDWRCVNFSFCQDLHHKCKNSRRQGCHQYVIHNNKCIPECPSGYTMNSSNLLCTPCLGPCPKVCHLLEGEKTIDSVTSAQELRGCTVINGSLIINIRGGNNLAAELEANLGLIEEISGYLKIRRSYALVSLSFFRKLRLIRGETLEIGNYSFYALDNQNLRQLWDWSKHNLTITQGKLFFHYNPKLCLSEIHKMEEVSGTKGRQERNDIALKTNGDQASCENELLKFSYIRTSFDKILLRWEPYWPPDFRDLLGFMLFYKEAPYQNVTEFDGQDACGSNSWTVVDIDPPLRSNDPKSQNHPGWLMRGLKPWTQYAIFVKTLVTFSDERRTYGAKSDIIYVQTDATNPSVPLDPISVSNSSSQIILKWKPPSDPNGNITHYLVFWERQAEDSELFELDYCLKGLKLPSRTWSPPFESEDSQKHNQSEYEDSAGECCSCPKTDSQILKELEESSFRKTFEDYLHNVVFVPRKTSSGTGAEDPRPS
# T1 sequence (P06213 763-1382 partner limits assumed): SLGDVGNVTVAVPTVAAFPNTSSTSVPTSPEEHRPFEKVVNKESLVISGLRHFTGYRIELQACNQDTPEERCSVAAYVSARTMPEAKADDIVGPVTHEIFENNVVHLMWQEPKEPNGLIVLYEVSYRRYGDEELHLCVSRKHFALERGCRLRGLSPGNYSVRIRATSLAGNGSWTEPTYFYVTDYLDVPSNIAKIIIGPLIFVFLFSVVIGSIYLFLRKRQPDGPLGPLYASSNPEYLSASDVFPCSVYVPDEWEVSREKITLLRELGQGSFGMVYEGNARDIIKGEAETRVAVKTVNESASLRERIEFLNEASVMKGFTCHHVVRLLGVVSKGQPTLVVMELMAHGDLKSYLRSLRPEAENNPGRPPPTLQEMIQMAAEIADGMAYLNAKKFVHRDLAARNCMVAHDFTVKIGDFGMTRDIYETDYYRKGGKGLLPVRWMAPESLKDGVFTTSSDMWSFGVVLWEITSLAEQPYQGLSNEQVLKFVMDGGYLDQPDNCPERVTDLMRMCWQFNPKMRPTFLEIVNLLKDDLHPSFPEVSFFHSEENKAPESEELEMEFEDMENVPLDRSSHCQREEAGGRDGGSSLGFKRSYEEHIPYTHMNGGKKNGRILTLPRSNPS
# Method: (§1) Competition binding experiments were performed in 96-well plates (polystyrene Optiplate-96, PerkinElmer) on an Eppendorf epMotion 5075 robot using solubilized human IR (holoreceptor) semipurified by wheat germ agglutinin purification from baby hamster kidney (BHK) cells, which were stably transfected with the pZem vector containing the human IR-A or IR-B insert.
# human IR-A = molecular target: T2, human IR-A (Homo sapiens, UniProt P06213); assay: Insulin receptor binding assay (SPA, solubilised receptor), hIR-A; details: hIR-A affinity relative to human insulin; analogue directly in yeast supernatant; SPA competition with [125I]A14Tyr-labelled insulin
# T2 construct: solubilized human IR (holoreceptor) semipurified by wheat germ agglutinin purification; made in house; host or cells: baby hamster kidney (BHK) cells, stably transfected (pZem vector)
# T2 sequence (P06213 28-746 isoform P06213-2 limits assumed): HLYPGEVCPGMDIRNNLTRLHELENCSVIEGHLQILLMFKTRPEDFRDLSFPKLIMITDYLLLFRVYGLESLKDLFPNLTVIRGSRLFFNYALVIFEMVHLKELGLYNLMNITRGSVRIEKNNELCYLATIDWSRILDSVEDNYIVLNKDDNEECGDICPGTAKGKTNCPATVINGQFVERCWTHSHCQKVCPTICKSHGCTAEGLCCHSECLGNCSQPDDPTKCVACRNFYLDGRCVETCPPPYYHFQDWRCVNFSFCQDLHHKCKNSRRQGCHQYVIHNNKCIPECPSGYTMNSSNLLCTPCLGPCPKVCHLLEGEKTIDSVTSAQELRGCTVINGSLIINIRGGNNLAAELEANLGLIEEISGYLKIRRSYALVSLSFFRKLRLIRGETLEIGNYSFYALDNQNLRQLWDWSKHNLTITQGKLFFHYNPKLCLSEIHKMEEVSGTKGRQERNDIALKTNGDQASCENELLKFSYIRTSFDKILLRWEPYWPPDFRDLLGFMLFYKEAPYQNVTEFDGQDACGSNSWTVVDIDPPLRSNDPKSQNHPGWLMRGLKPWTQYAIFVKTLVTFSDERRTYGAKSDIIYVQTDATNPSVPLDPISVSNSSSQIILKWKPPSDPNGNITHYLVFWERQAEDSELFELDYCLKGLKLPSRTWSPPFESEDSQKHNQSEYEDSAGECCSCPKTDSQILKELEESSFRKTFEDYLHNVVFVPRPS
# T2 sequence (P06213 763-1382 partner limits assumed): as the sequence (P06213 763-1382 partner limits assumed) above
# Method: as §1
# [2] = test system: insulin receptor A-isoform and B-isoform; details: cited from earlier work
substance,measurement,setting,value
His^B25 human insulin B30 amide,biological activity,[1],high biological activity
His^B25 human insulin,biological activity,[1],high biological activity
"[A8H, B25H, B27E, desB30] human insulin [Example 4]",Ratio B/A,"human IR-B; Example 8 table, ratio of relative hIR-B affinity to relative hIR-A affinity",2.1
same,hIR-B [% of HI] (%),"human IR-B; hIR-B affinity relative to human insulin, analogue directly in yeast supernatant, SPA competition with [125I]A14Tyr-labelled insulin",140 ± 5 % of HI
same,hIR-A [% of HI],human IR-A,67 ± 3 % of HI
Human insulin,affinity for insulin receptor A-isoform versus B-isoform (in words),"[2]; EMBO Journal 9 (1990), 2409-13",slightly higher affinity for the insulin receptor A-isoform than for the B-isoform
"His^B25, Asp^B28, desB30 human insulin",biological activity,[1],high biological activity
IGF-II,affinity for IR-A versus IR-B,[2]; higher affinity for IR-A than for IR-B,40-50 fold
